Holding throughout (experiment): inhibition of tumour cell growth, NCI panel, 48 h
The test system of experiment [1] is Hs-578T.
Experiment [2] relates to PC-3.
The test system of experiment [3] is NCI-H522.
Experiment [4] deals with NCI-H23.
Experiment [5] relates to NCI-H226.
The subject of experiment [6] is CCRF-CEM.
In experiment [7] the test system is KM12.
Experiment [8] concerns BT-549.
The subject of experiment [9] is M14.
The test system of experiment [10] is IGROV-1.
In experiment [11] the test system is OVCAR-5.
The test system of experiment [12] is ACHN.
In experiment [13] the test system is A549.
Experiment [14] relates to UACC-257.
Experiment [15] deals with SR.
For experiment [16], the system named is SK-MEL-5.
For experiment [17], the system named is OVCAR-8.
The subject of experiment [18] is A498.
For experiment [19], the system named is SK-MEL-2.

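Test compounds were applied to cells in 96-well plates for 48 hours at 5 doses. Here, GI50 denotes the concentration required for 50% inhibition of growth.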 Calls of active or inactive are those of the source. No stated cut-off is given here; in the data, active = GI50 up to about 1.1 µM and inactive = higher. Where only a bound is given, the exact number is not on record here.

`Nn1c(Sc2nc3ccccc3c(=O)n2N)nc2ccccc2c1=O`: the GI50 in experiment [1] is 17.1 µM (inactive); in experiment [2], 11.7 µM (inactive); in experiment [3], 1.69 µM (inactive); in [4], 1.91 µM (inactive); in experiment [5], 1.71 µM (inactive); in experiment [6] it was 0.94 µM (active). Also, the GI50 in experiment [7] was 11.7 µM (inactive); in [8], 1.77 µM (inactive); in experiment [9], 1.8 µM (inactive); in [10], 6.5 µM (inactive); in experiment [11], 16.5 µM (inactive); in experiment [12], 8.95 µM (inactive). Besides, the GI50 in [13] is 14.2 µM (inactive); in [14], 16.5 µM (inactive); in experiment [15], 2.02 µM (inactive); in [16], 3.96 µM (inactive); in experiment [17], 2.77 µM (inactive); in experiment [18] it was 16 µM (inactive). The GI50 in [19] is 3.24 µM (inactive).
As to `CC(C)C[S+]1C2=C(CC(C)(C)CC2=O)[N-]c2ccccc21` (centres undefined), the GI50 in [1], in experiment [2], in experiment [3], in experiment [4], in [5] and in [6] was > 100 µM (inactive) in each case. Further, the GI50 in experiment [7], in experiment [8], in [9], in [10], in experiment [11] and in experiment [12] was > 100 µM (inactive) each time. Also, the GI50 was > 100 µM (inactive) in experiment [13]; > 100 µM (inactive) in experiment [14]; 11.3 µM (inactive) in experiment [15]; > 100 µM (inactive) in experiment [16]; > 100 µM (inactive) in experiment [17]; > 100 µM (inactive) in experiment [18]. The GI50 in experiment [19] is > 100 µM (inactive).
As to `Oc1cc(-c2cccc(Br)c2)nc2cc3c(cc12)OCO3`, the GI50 in [1] is 3.32 µM (inactive); in experiment [2], 5.43 µM (inactive); in experiment [3], 3.93 µM (inactive); in [4] it was 5.38 µM (inactive); in experiment [5] it was 6.75 µM (inactive); in experiment [6], 8.38 µM (inactive). The GI50 is 3 µM (inactive) in [7]; 3.6 µM (inactive) in experiment [8]; 2.65 µM (inactive) in [9]; 1.8 µM (inactive) in [10]; 51.5 µM (inactive) in experiment [11]; 5.32 µM (inactive) in experiment [12]. Also, the GI50 in [13] was 7.24 µM (inactive); in experiment [14], 5.24 µM (inactive); in [15] it was 1.93 µM (inactive); in experiment [16], 1.38 µM (inactive); in [17] it was 4.57 µM (inactive); in experiment [18], 3.08 µM (inactive). Moreover, the GI50 in [19] was 2.16 µM (inactive).
On to `O=S(=O)(Nc1nc2ccccc2nc1Nc1ccc2ccccc2c1)c1ccccc1`, for which the GI50 in experiment [1] is 14.3 µM (inactive); in experiment [2] it was 3.3 µM (inactive); in experiment [3] it was 5.15 µM (inactive); in experiment [4] it was 6.89 µM (inactive); in experiment [5] it was 16.7 µM (inactive); in experiment [6], 20 µM (inactive). The GI50 was 6 µM (inactive) in experiment [7]; 15.8 µM (inactive) in [8]; 9.04 µM (inactive) in [9]; 9.59 µM (inactive) in [10]; 26.4 µM (inactive) in experiment [11]; 17.3 µM (inactive) in [12]. The GI50 was 5.96 µM (inactive) in experiment [13]; 26.1 µM (inactive) in experiment [14]; 13.2 µM (inactive) in [15]; 10.9 µM (inactive) in experiment [16]; 14.4 µM (inactive) in experiment [17]; 28.3 µM (inactive) in experiment [18]. The GI50 in experiment [19] is 3.19 µM (inactive).
In the case of `Cc1cc(S(=O)(=O)Nc2nnc3c(Cl)cc(C(F)(F)F)cn23)c(S)cc1Cl`, the GI50 in [1] was > 64.9 µM (inactive); in experiment [2], 69.3 µM (inactive); in experiment [3], 63.5 µM (inactive); in experiment [4] it was 95.1 µM (inactive); in experiment [5], 23.3 µM (inactive); in [6], > 84.7 µM (inactive). Moreover, the GI50 in experiment [7] was 39.3 µM (inactive); in experiment [8], 25.9 µM (inactive); in experiment [9] it was > 83.8 µM (inactive); in experiment [10], 50.5 µM (inactive); in experiment [11], > 100 µM (inactive); in experiment [12] it was > 76.7 µM (inactive). Moreover, the GI50 was 51.6 µM (inactive) in experiment [13]; > 100 µM (inactive) in [14]; 66.8 µM (inactive) in experiment [15]; 22.8 µM (inactive) in experiment [16]; 50.4 µM (inactive) in experiment [17]; > 100 µM (inactive) in experiment [18]. Moreover, in [19], the GI50 was 48.4 µM (inactive).
On to `CCSc1nc(C)nc2c1sc1nc3ccccc3n12`, for which the GI50 in experiment [1] is 24.2 µM (inactive); in [2], > 100 µM (inactive); in experiment [3], > 100 µM (inactive); in [4], > 100 µM (inactive); in experiment [5] it was > 100 µM (inactive); in [6] it was > 100 µM (inactive). The GI50 was > 68.1 µM (inactive) in [7]; > 100 µM (inactive) in experiment [8]; > 100 µM (inactive) in experiment [9]; > 100 µM (inactive) in experiment [10]; > 100 µM (inactive) in experiment [11]; > 100 µM (inactive) in [12]. Besides, the GI50 in experiment [13], in experiment [14], in experiment [15], in [16], in [17] and in experiment [18] was > 100 µM (inactive) each time. The GI50 in experiment [19] is > 100 µM (inactive).
Consider `CCOP(=O)(OCC)/C(C#N)=C/c1cccn1C`, for which the GI50 in [1] is > 100 µM (inactive); in experiment [2], > 100 µM (inactive); in experiment [3], > 100 µM (inactive); in experiment [4], > 100 µM (inactive); in [5], > 100 µM (inactive); in experiment [6], 25.9 µM (inactive). For the same molecule, the GI50 in experiment [7], in experiment [8], in experiment [9], in [10], in [11] and in experiment [12] was > 100 µM (inactive) throughout. Also, the GI50 in [13], in experiment [14], in experiment [15], in experiment [16], in experiment [17] and in experiment [18] was > 100 µM (inactive) in each case. The GI50 in experiment [19] was > 100 µM (inactive).
As for `c1ccc2c(c1)-c1ccccc1C2N1CC2CCC(CC2)C1`, the GI50 in [1] is 3.37 µM (inactive); in experiment [2] it was 27.6 µM (inactive); in [3], 10.5 µM (inactive); in [4], 17.3 µM (inactive); in [5], 19.5 µM (inactive); in [6], 19.5 µM (inactive). Besides, the GI50 in experiment [7] was 19 µM (inactive); in experiment [8], 16.8 µM (inactive); in experiment [9], 26.7 µM (inactive); in [10], 20.7 µM (inactive); in experiment [11], 18 µM (inactive); in experiment [12] it was 23 µM (inactive). Besides, the GI50 in [13] is 28.8 µM (inactive); in [14] it was 20.6 µM (inactive); in experiment [15] it was 20.6 µM (inactive); in experiment [16], 17.1 µM (inactive); in experiment [17], 30 µM (inactive); in [18] it was 20.3 µM (inactive). The GI50 in [19] was 16 µM (inactive).
Regarding `CCC1CC(=O)N(SCC(N)C(=O)O)C1=O` (centres undefined), the GI50 in experiment [1], in experiment [2], in [3], in [4], in experiment [5] and in experiment [6] was > 100 µM (inactive) throughout. The GI50 in experiment [7], in experiment [8], in experiment [9], in [10], in experiment [11] and in experiment [12] was > 100 µM (inactive) each time. Moreover, the GI50 in [13], in [14], in experiment [15], in experiment [16], in [17] and in [18] was > 100 µM (inactive) in each case. The GI50 in experiment [19] is > 100 µM (inactive).
For `O=[N+]([O-])c1cccc(-c2cn3c(n2)Cc2ccccc2C3)c1`, the GI50 in experiment [1] is 85.3 µM (inactive); in experiment [2], 77.4 µM (inactive); in [3] it was 34.4 µM (inactive); in experiment [4] it was 59.6 µM (inactive); in [5], > 100 µM (inactive); in [6], 15.9 µM (inactive). In addition, the GI50 in experiment [7] is 24.9 µM (inactive); in experiment [8], > 100 µM (inactive); in experiment [9], 42.4 µM (inactive); in experiment [10], > 100 µM (inactive); in experiment [11], 17.8 µM (inactive); in experiment [12], > 100 µM (inactive). The GI50 in experiment [13] is 64.1 µM (inactive); in experiment [14], 87.3 µM (inactive); in [15] it was 51.4 µM (inactive); in experiment [16] it was 28.6 µM (inactive); in experiment [17], 99.1 µM (inactive); in experiment [18] it was 16.9 µM (inactive). Besides, the GI50 in experiment [19] is 34.9 µM (inactive).
Take `CCC(=O)/C=C/c1ccccc1`: the GI50 is 21.8 µM (inactive) in experiment [1]; > 100 µM (inactive) in experiment [2]; > 100 µM (inactive) in experiment [3]; 47.4 µM (inactive) in experiment [4]; > 100 µM (inactive) in experiment [5]; 37.2 µM (inactive) in experiment [6]. For the same molecule, the GI50 in experiment [7] is 14.6 µM (inactive); in experiment [8], 32.7 µM (inactive); in experiment [9], 52.8 µM (inactive); in experiment [10], 76.9 µM (inactive); in experiment [11] it was > 100 µM (inactive); in experiment [12], 79.1 µM (inactive). In addition, the GI50 is > 100 µM (inactive) in experiment [13]; 72.6 µM (inactive) in experiment [14]; 42.8 µM (inactive) in [15]; 33 µM (inactive) in experiment [16]; 51.3 µM (inactive) in experiment [17]; 48.9 µM (inactive) in [18]. In addition, in experiment [19], the GI50 was > 100 µM (inactive).

Source of the values: ChEMBL document CHEMBL1201862, “PubChem BioAssay data set” (2004).
